Results: patent US6599499B1, “Uses of diterpenoid triepoxides as an anti-proliferative agent” (priority 1999, dated 2003)

Tests used:
[1] = room temperature
Procedure: Stock solutions of PG490-88 (1 mg/ml) were prepared by dissolution in 0.9% NaCl and sterilized by microfiltration using 0.2 μm pore size filters (Supor Acrodisc 25, Gelman Sciences, Ann Arbor, Mich.). The PG490-88 stock solutions were diluted in 0.9% NaCl for IP administration.

[2] = Observable toxicity in treated mice (body weight, activity, respiration); type: in vivo
Procedure: PG490-88 (0.75 mg/kg) as measured by a change in body weight, altered activity or labored respiration.

p53 null (−/−) MEFs = experiment: Cell viability of p53-/- mouse embryonic fibroblasts; details: Fibroblast, read-out: reduction of cell viability
Procedure: Cell culture and luciferase assay. A549 (non-small cell lung cancer), HT-1080 (fibrosarcoma), and MCF-7 (breast cancer) cells were cultured in the appropriate media with 10% FCS supplemented with L-glutamine, penicillin, and streptomycin. p53 wild-type (+/+) and null (−/−) Mouse Embryonic Fibroblasts (MEFs) transfected with the E1A/Ras were grown in DMEM containing 15% FCS supplemented with L-glutamine, penicillin, and streptomycin. Transfections were done on MCF-7 cells using the lipofectamine Plus reagent. At 24 hours after transfection, MCF-7 cells were left untreated or treated with triptolide (20 ng/ml) or doxorubicin (100 nM) for 4, 8, and 16 hours and cells were collected for luciferase assay. Luciferase activity was measured in samples with equal protein concentration with a Luminometer (Analytical Luminescence Laboratory, San Diego, Calif.).
Cell viability assay. Cell viability was measured by an 3-(4,5-dimethylthiazol-2-yl)-2,5-diphenyltetrazolium bromide (MTT) assay as described above. Untreated or cells treated with triptolide and/or doxorubicin were harvested at the indicated times followed by the addition of MTT to the cells in a 96-well plate. Cells were solubilized with […] acidified with 0.1N HCl. The 96-plate was read at a wavelength of 590 nm on an iEMS Labsystems plate reader.

p53 mRNA = p53 mRNA by RT-PCR in MCF-7 cells; type: cell-based, human; details: MCF-7 cells treated for 16 h
Procedure: RT-PCR. RNA was prepared from MCF-7 cells using Rneasy Mini Kit from Qiagen Inc. (Valencia, Calif.). cDNAs were prepared using M-MLV reverse transcriptase (Gibco) with 2 μg of total RNA. 1/20 of total cDNA was used in limited (25 cycles) PCR reactions using Taq polymerase (Gibco). The following primer pairs were used: p53 [SEQ ID NO:1] 5′-[…]-3′ and 5′-[SEQ ID NO:2] TCTTCUTXGGCTGGGGAGAG-3′, mdm2, [SEQ ID NO:3] 5′-[…]-3′ and [SEQ ID NO:4] 5′-[…]-3′, p21, [SEQ ID NO:5] 5′-[…]-3′ and [SEQ ID NO:6] 5′-[…]-3′, and glyceraldehyde-3-phosphate dehydrogenase (GAPDH)- [SEQ ID NO:7] 5′-[…]-3′ and [SEQ ID NO:8] 5′-[…]-3′.
In the experiments shown in FIG. 5, RT-PCR was performed using 2 μg of total RNAs extracted from MCF-7 cells. […] GADPH was used as a loading control. The plasmid pBP100-GL2 which contains a p53-binding site in the mdm2 promoter was transiently transfected into MCF-7 cells, and cellular lysates were used for the luciferase assay.

Compound | half-life in mouse serum [1] [min] | observable toxicity (change in body weight, altered activity or labored respiration) ([2]; PG490-88 0.75 mg/kg) | tolerability ([2]; triptolide dosage on molar comparison to PG490-88 70 μg/mouse/week) | cytotoxicity at 0.005 µg/mL (p53 null (−/−) MEFs) [%] | cytotoxicity at 0.01 µg/mL (p53 null (−/−) MEFs) [%] | p53 mRNA level (p53 mRNA)
CC(C)[C@]12O[C@H]1[C@@H]1O[C@]13[C@]1(O[C@H]1C[C@H]1C4=C(CC[C@@]13C)C(=O)OC4)[C@@H]2OC(=O)CCC(=O)[O-].[Na+] [PG490-88, 14-succinyl triptolide sodium salt] | < 5 | no observable toxicity | well tolerated | – | – | –
CC(C)[C@]12O[C@H]1[C@@H]1O[C@]13[C@]1(O[C@H]1C[C@H]1C4=C(CC[C@@]13C)C(=O)OC4)[C@@H]2O [PG490, triptolide] | – | – | – | 15 | 50 | slightly reduced
